Measurements: patent US8962793B2, “ErbB interface peptidomimetics and methods of use thereof” (The Trustees of the University of Pennsylvania, priority 2001, dated 2015)
Bridge positions count the residues as written; N and C are the ends. Peptide text beside a SMILES is read from it.

Columns and labels:
[1] = molecular target: T1, erbB3-erbB2 heteromerization (Homo sapiens, UniProt P04626); assay: SPR inhibition of HRGβ1-induced binding of ErbB3 to immobilized ErbB2; conditions: peptide 10 μm, ErbB3 300 nm, HRGβ1 5 μM
T1 construct: the ectodomains of erbB receptors were immobilized on the surface chip; erbB2: Dr. Che Law, Xcyte Therapeutics; erbB3: Dr. Mark A. Lemmon
Experimental: (§1) The effect of cysteine-knot mimetics on receptor self-associations, was examined using a Biacore assay in which the ectodomains of erbB receptors were immobilized on the surface chip and the ectodomain of erbB3 was injected at 300 nM concentrations either alone or in the presence of 5 μM hereglunin HRGβ1.
(§2) The effect of the erbB peptides on heregulin-induced receptor self-associations was studied by preinjecting them at 10 μM followed by injection of erbB3-HRGβ1 (FIG. 4; 1B, 2B, 3B).
(§3) Binding experiments were performed with the surface plasmon resonance based biosensor instrument Biacore 3000 (Biacore AB, Uppsala, Sweden), at 25° C. […] (erbB2) and Dr. Mark A. Lemmon, Department of Biochemistry and Biophysics, University of Pennsylvania School of Medicine (erbB1 and erbB3). Immobilization of the erbB receptors in the sensor surface was performed following the standard amine coupling procedure according to manufacturer's instructions. Briefly, 35 μl of a solution containing 0.2 M N-ethyl-N′-(dimethylaminopropyl) carbodiimide (EDC) and 0.05 M N-hydroxysuccinimide (NHS), were injected at a flow rate of 5 μl/min to activate carboxyl groups on the sensor chip surface. Receptors (40 ng/ml in 10 mM NaOAc buffer, pH 5.0) were flowed over the chip surface at a flow rate of 20 μl/min until the desired level bound protein was reached. Unreacted protein was washed out and unreacted activated groups were blocked by the injection of 35 μl of 1 M ethanolamine at 5 μl/min. […] A reference surface was generated simultaneously under the same conditions but without receptor injection and used as a blank to correct for instrument and buffer artifacts. Peptides were injected at variable concentrations at 20 μl/min flow rate and binding to the receptors immobilized on the chip was monitored in real time. Each sensorgram consists of an association phase (first 240 s), reflecting binding of the injected peptide to the receptor, followed by a dissociation phase (300 s), during which the running buffer is passed over the chip and the bound peptide is being washed off the receptor surface.

ErbB2 = molecular target: T2, ErbB2 (Homo sapiens, UniProt P04626); assay: Surface plasmon resonance (Biacore) binding to immobilized ErbB2 extracellular domain; conditions: immobilized extracellular domain, surface plasmon resonance; read-out: KD (μM) ErbB2
T2 construct: provided by Dr. Che Law, Xcyte Therapeutics, Seattle
Experimental: The designed erbB peptides were tested for binding to erbB receptors using surface plasmon resonance (Biacore) technology (described supra) using soluble erbB-1 and erbB-3. The response was plotted in real time in the form of sensorgram curves. Dissociation constants (Kd) were determined as described (Park, et al. 2000, Nat. Biotechnol. 18:194-198).
A sensorgram for binding of B2-S22-APE peptide to erbB receptors immobilized on the sensor chip was performed.
as §3

ErbB1 = molecular target: T3, ErbB1 (Homo sapiens, UniProt P00533); assay: Surface plasmon resonance (Biacore) binding to immobilized ErbB1 extracellular domain; conditions: immobilized extracellular domain, surface plasmon resonance; read-out: KD (μM) ErbB1
T3 construct: gift of Dr. Mark A. Lemmon, University of Pennsylvania School of Medicine
Experimental: (§4) The designed erbB peptides were tested for binding to erbB receptors using surface plasmon resonance (Biacore) technology (described supra) using soluble erbB-1 and erbB-3. The response was plotted in real time in the form of sensorgram curves.
as §3

[2] = molecular target: T4, erbB3-erbB3 homomerization (Homo sapiens, UniProt P21860); assay: SPR inhibition of HRGβ1-induced binding of ErbB3 to immobilized ErbB3; conditions: peptide 10 μm, ErbB3 300 nm, HRGβ1 5 μM
T4 construct: the ectodomains of erbB receptors were immobilized on the surface chip; erbB3: gift of Dr. Mark A. Lemmon
Experimental: as §1, §2, §3

ErbB3 = molecular target: T5, ErbB3 (Homo sapiens, UniProt P21860); assay: Surface plasmon resonance (Biacore) binding to immobilized ErbB3 extracellular domain; conditions: immobilized extracellular domain, surface plasmon resonance; read-out: KD (μM) ErbB3
T5 construct: gift of Dr. Mark A. Lemmon, University of Pennsylvania School of Medicine
Experimental: as §4, §3

[3] = molecular target: T6, erbB3-erbB1 heteromerization (Homo sapiens, UniProt P00533); assay: SPR inhibition of HRGβ1-induced binding of ErbB3 to immobilized ErbB1; conditions: peptide 10 μm, ErbB3 300 nm, HRGβ1 5 μM
T6 construct: the ectodomains of erbB receptors were immobilized on the surface chip; erbB1 and erbB3: gift of Dr. Mark A. Lemmon
Experimental: as §1, §2, §3

[4] = molecular target: T7, erbB2-erbB4 receptor heteromerization in the 32D-E2/E4 cells (Homo sapiens, UniProt P04626); assay: Chemical cross-linking and immunoblotting of heregulin-induced receptor dimerization in 32D-E2/E4 cells; format: cell-based; conditions: dose-dependent, FIG. 5B, read-out: apparent IC50 of inhibition of receptor dimerization
T7 construct: dimerization of native full-length ErbB receptors was studied using the 32D cell lines transfected with different erbB receptors; host or cells: 32D cells (32D-E2/E4)
Experimental: Effect of the ErbB peptides on biochemically defined dimerization of native full-length ErbB receptors was studied using the 32D cell lines transfected with different erbB receptors. 32D-E1 cells were transfected with erbB1; 32D-E2/E3 with erbB2 and erbB3; and 32D-E2/E4 with erbB2 and erbB4.
32D cell transfectants with ErbB receptors (gift from Dr. Jacalyn H. Pierce, National Cancer Institute) were grown in RPMI 1640, 10% FBS and 5% WEHI medium (GenoQuest, Interlukin-3 supplement) and respective antibiotics, i.e. 32D-E1 (gptr), 32D-E2/E3 (neor/gptr) and 32D-E2/E4 (neor/gptr) (29). The WEHI medium was withdrawn and cells were pre-incubated with ErbB peptides for 2 hours at 37° C. before adding 10 μg/ml EGF (for 32D-E1, Collaborative Biomedical Products) or 10 μg/ml HRG 1 (for 32D-E2/E3 or 32D E2/E4, R&D Systems) and further incubated at 37° C. for 24-48 hours. The cell viability was detected with propidium iodide staining followed by flow cytometry quantification. For the cross-linking analysis, approximately 2×10^6 cells were suspended in RPMI 1640 medium containing 0.1% BSA and 10 mM HEPES, and pre-incubated with ErbB peptides for 2 hours at 37° C. before adding 10 μg/ml EGF or 10 μg/ml Heregulin-β1 EGF domain and further incubated at 37° C. for 10-15 minutes. Cells were rinsed with PBS and incubated in 2 mM BS^3/PBS at 4° C. for 45 minutes. […]

T6 sequence (P00533 25-645 limits assumed, one chain of several): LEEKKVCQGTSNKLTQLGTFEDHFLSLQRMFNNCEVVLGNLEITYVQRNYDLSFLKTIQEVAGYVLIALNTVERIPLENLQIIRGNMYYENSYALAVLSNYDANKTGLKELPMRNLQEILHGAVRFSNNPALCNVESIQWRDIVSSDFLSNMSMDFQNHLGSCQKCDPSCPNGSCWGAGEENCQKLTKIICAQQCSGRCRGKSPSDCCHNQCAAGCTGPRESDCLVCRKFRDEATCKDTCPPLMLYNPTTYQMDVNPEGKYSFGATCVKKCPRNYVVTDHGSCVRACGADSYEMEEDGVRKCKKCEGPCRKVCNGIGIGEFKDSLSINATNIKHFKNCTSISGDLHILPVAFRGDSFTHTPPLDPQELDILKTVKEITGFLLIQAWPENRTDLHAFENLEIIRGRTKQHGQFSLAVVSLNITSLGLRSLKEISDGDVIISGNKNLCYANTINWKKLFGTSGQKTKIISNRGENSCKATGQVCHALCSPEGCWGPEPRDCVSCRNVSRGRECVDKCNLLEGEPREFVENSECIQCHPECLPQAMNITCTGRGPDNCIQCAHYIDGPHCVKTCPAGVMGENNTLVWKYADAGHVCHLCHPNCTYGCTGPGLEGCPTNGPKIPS
T3 sequence (P00533 25-645 limits assumed): as the sequence (P00533 25-645 limits assumed, one chain of several) above
T2 sequence (P04626 23-652 limits assumed): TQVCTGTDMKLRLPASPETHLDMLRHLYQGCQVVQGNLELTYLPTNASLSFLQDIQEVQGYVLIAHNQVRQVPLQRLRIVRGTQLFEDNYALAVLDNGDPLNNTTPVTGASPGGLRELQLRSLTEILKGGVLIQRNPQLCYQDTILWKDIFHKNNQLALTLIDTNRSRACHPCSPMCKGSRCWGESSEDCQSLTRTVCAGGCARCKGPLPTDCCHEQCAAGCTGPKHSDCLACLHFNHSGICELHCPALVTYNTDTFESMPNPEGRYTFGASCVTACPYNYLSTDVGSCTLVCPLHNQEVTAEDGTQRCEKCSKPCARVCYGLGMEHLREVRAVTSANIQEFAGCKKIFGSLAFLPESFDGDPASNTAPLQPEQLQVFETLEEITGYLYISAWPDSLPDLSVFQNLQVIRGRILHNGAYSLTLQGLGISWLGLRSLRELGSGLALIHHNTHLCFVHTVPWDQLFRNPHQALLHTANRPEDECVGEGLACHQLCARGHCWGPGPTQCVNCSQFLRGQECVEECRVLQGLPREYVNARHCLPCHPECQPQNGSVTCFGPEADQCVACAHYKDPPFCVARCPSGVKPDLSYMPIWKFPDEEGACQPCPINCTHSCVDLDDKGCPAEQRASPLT
T1 sequence (P04626 23-652 limits assumed, one chain of several): as the sequence (P04626 23-652 limits assumed) above
T4 sequence (P21860 20-643 limits assumed): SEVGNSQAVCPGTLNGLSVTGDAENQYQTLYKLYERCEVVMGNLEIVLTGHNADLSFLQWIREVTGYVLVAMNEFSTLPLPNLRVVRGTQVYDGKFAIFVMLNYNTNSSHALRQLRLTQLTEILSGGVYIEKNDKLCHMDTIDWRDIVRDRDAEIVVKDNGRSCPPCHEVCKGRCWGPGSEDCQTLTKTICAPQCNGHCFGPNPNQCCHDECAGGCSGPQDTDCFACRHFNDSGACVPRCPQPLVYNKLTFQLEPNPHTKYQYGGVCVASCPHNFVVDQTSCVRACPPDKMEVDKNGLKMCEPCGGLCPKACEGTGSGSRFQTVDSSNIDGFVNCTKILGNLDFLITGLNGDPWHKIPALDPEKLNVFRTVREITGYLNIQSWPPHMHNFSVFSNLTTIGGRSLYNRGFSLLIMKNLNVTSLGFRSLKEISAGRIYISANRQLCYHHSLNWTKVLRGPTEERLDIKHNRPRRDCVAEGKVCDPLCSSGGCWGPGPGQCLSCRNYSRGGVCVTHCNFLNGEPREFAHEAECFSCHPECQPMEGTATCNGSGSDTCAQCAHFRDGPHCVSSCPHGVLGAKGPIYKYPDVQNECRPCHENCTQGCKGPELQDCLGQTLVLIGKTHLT
T5 sequence (P21860 20-643 limits assumed): as above
T7 sequence (P04626 23-1255, one chain of several): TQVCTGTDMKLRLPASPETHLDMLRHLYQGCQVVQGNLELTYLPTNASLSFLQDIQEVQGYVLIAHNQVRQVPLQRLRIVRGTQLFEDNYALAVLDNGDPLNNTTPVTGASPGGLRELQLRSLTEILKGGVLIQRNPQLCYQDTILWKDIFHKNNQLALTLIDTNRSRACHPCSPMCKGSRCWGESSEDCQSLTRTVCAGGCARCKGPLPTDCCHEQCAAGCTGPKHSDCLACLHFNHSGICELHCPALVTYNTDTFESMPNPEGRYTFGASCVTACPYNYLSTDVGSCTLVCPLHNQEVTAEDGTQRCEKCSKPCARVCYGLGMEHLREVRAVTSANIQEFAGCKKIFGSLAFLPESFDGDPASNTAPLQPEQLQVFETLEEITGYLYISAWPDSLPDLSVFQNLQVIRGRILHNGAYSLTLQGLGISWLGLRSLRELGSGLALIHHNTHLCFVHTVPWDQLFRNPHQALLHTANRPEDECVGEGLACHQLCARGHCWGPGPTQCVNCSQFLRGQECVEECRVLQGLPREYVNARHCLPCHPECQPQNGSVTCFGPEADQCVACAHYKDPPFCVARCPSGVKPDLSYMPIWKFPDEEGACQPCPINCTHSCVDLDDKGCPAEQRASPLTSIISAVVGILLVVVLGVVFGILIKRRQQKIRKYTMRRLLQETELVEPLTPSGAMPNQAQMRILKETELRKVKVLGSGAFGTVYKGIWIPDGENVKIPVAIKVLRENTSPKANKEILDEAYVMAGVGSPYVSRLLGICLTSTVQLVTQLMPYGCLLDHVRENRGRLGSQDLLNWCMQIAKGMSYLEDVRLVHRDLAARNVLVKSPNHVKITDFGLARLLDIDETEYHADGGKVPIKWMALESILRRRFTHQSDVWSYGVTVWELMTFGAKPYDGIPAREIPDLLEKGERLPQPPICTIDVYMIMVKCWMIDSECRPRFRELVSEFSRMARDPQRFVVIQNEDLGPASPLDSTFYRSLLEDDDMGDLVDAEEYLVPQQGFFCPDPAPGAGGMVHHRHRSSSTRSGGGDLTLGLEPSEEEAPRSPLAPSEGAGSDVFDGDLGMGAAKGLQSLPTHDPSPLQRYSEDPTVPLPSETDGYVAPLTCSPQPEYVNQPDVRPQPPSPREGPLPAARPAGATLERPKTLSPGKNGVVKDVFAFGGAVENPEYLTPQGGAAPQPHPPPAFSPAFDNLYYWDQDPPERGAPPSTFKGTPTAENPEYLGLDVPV

Percent Inhibition ErbB2 [1]: 82.5%
Kd (ErbB2): 0.302 µM
Kd (ErbB1): 0.407 µM
Percent Inhibition ErbB3 [2]: 61.7%
Kd (ErbB3): 0.429 µM
Percent Inhibition ErbB1 [3]: 78.4%
IC50 [4]: 0.8 µM
Structure (SMILES): C[C@@H]1NC(=O)CNC(=O)[C@H](CCC(=O)O)NC(=O)[C@H](CCC(=O)O)NC(=O)[C@H](CC(=O)O)NC(=O)[C@@H]2CCCN2C(=O)[C@H](Cc2ccccc2)NC(=O)[C@@H](NC(=O)[C@@H](N)Cc2ccc(O)cc2)CSSC[C@@H](C(=O)N[C@@H](Cc2ccc(O)cc2)C(N)=O)NC1=O [B2-S22-AFA, YCFPDEEGACY] (H-YCFPDEEGACY-NH2; disulfide 2-10)
